Results reported in publication PMC8037814, “Polymorphic Characterization, Pharmacokinetics, and Anti-Inflammatory Activity of Ginsenoside Compound K Polymorphs” (Molecules, 2021).
“And” between values parts separate entries of the source, which are not always exact repeats. Identical values can stand only once.

Columns and labels:
[1] = Pharmacokinetics after oral administration of CK polymorphs in rats (20 mg/kg); format: in vivo, Sprague-Dawley rats; conditions: for Fabs (absolute bioavailability): p.o. 20 mg/kg vs i.v. 10 mg/kg, dose-adjusted AUC ratio; for t1/2z / AUC(0–t) / AUC(0–∞) / CLz/F / Cmax / Vz/F: p.o. 20 mg/kg, 20 mg/kg
[2] = as above; format: in vivo, Sprague-Dawley rats; conditions: p.o. 20 mg/kg, individual rats 1-3
Protocol: All samples were analyzed with a triple quadrupole LC-MS/MS (API 4000 LC-MS/MS, AB Sciex, Framingham, MA, USA) coupled with an Agilent 1200 HPLC system (Agilent Technologies, Palo Alto, CA, USA). The MS was equipped with an electrospray system (ESI). The N2 gas temperature and ion-spray voltage were set to 550 °C and 4.5 kV, respectively. CK was measured in multiple reaction monitoring (MRM) mode using a negative electrospray ionization source at m/z 667.4 → 621.2 for CK (CID 25.6 v) and m/z 271.2 → 228.8 for internal standard (IS, (E)-5-(4-fluorostyryl)-2-isopropylbenzene-1,3-diol, Welichem Biotech Inc., Wayburne Drive Burnaby, BC, Canada) (CID 28.3 v) with a dwell time of 0.1 s.
Rats were divided randomly into 5 groups of six animals each (sex in half) and given 7 days to acclimatize to the facility before the experiments began. The four forms of CK were suspended in 0.5% sodium carboxymethyl cellulose (CMC-Na) solution and orally administered to rats at a dose of 20 mg/kg. A CK solution in a mixed solvent of dimethyl sulfoxide (DMSO)/castor oil/physiologic saline (3:5:92, v/v) was intravenously administered to the remaining group via the tail vein at a dose of 10 mg/kg. Blood samples were collected by retro-orbital puncture at the following times: 0.167, 0.333, 0.667, 1, 2, 3, 4, 6, 9, 12, and 24 h for the oral administration, and at 0.0083, 0.05, 0.133, 0.25, 0.5, 1, 2, 4, 6, and 9 h for the intravenous administration. Plasma samples were obtained by centrifuging a heparinized blood tube at 4000 rpm for 5 min and then stored at −70 °C until analysis.
The procedure for drug extraction from plasma samples was as follows: 0.2 mL acetonitrile, 0.2 mL plasma sample, and 10 μL IS (1 µg/mL) were added into a 1.5 mL Eppendorf-type tube. This mixture was vortexed for 1 min and then treated with 0.8 mL of methyl tert-butyl ether (MTBE) to precipitate the plasma proteins. After a mechanical vortex for 1 min and subsequent centrifugation (4000 rpm, 5 min), 0.8 mL of the supernatant was transferred and blow-dried with N2 at 40 °C in a water bath. Finally, the residue was dissolved in 120 μL of mobile phase, and then 10 μL was subjected to HPLC for analysis. […] Intra- and inter-day precision and accuracy never exceeded 15% by analyzing six replicate samples.
The CK pharmacokinetic parameters in rats, including the area under the curve (AUC(0–t) and AUC(0–∞)), mean residence time (MRT(0–t) and MRT(0–∞)), maximum concentration (Cmax), time to maximum concentration (Tmax), half-life (t1/2), apparent distribution volume (V), and total plasma clearance (CL), were derived from plasma concentration-time curves by using non-compartmental analysis (NCA) with DAS 2.0 software (Drug And Statistics, Mathematical Pharmacology Professional Committee of China, Shanghai, China). The absolute bioavailability (Fabs) was calculated from the dose-adjusted ratio of AUCp.o. to AUCi.v.. One-way analysis of variance (ANOVA) by SPSS 11.5 (SPSS Inc., Chicago, IL, USA) was conducted to compare the primary PK parameters.

[3] = system: carrageenan-induced acute paw inflammation; assay: Paw swelling test induced by carrageenan in rats; format: in vivo, Sprague-Dawley rats; design: paw volume: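 right hind paw volume measured with a plethysmometer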; conditions: listed as From III; for paw volume / paw edema: mean±SD of 6 rats; for edema inhibition: versus model group
Protocol: Rats were divided into 11 groups of six animals each (sex in half): the normal group, the model group, indomethacin group (1 mg/kg), and form I, II, III, IV groups (each form set 10 mg/kg and 20 mg/kg groups, respectively). Indomethacin and CK were ground and suspended in 0.5% CMC-Na solution. […] The same volume of saline was injected into the normal group. […] Paw edema and inhibitory rate were calculated as the following formula, and the differences among groups were compared with the t-test. Paw edema (%) = (Vn − V0)/V0 × 100%. Vn: paw volume at different time intervals after carrageenan injection. V0: paw volume before carrageenan injection. Inhibitory rate (%) = (Em − Ee)/Em × 100%. Em: paw edema of the model group. Ee: paw edema of the experimental group.

[4] = DSC thermal analysis of CK polymorphs; format: physicochemical; conditions: 20 K/min from 20 to 400 °C, dry nitrogen flow
Protocol: DSC measurements were performed on a DSC204 Phoenix calorimeter (NETZSCH, Selb, Germany) with a heating rate of 20 K/min from 20 to 400 °C. The dry nitrogen flow was about 50 mL/min. Data were analyzed using NETZSCH analysis software.

[5] = 10 mg/kg p.o. qd 3 days, 3h after carrageenan
[6] = 10 mg/kg p.o. qd 3 days, 4h after carrageenan
[7] = 10 mg/kg p.o. qd 3 days, 5h after carrageenan
[8] = 10 mg/kg p.o. qd 3 days, 6h after carrageenan
[9] = 20 mg/kg p.o. qd 3 days, 3h after carrageenan
[10] = 20 mg/kg p.o. qd 3 days, 4h after carrageenan
[11] = 20 mg/kg p.o. qd 3 days, 5h after carrageenan
[12] = 20 mg/kg p.o. qd 3 days, 6h after carrageenan

In the case of `CC(C)=CCCC(C)(OC1OC(CO)C(O)C(O)C1O)C1CCC2(C)C1C(O)CC1C3(C)CCC(O)C(C)(C)C3CCC12C` [Form III, 20-O-β-D-glucopyranosyl-20(S)-protopanaxadiol], the “Fabs (absolute bioavailability)” value ([1]; female rats) is reported as 5.85%, the t1/2z ([1]; female rats, individual rats 1-3) is reported as 2.82 h and 3.06 h and 2.56 h and the “AUC(0–t)” value ([1]; female rats, mean ± SD (n = 3)) is reported as 1869.55 ± 618.65 ng·h/mL and 1869.6 ± 618.65 ng·h/mL. The “AUC(0–∞)” value ([1]; female rats, mean ± SD (n = 3)) was 1896.19 ± 604.12 ng·h/mL and 1896.2 ± 604.12 ng·h/mL, the CLz/F ([1]; female rats, mean ± SD (n = 3)) was 186.5 ± 50.3 mL/min/kg and 187 ± 50.3 mL/min/kg and the Cmax ([1]; female rats, mean ± SD (n = 3)) was 355.12 ± 79.98 ng/mL and 355.1 ± 79.98 ng/mL. For the same compound, the Vz/F ([1]; female rats, mean ± SD (n = 3)) was 44.76 ± 9.37 L/kg and 44.8 ± 9.37 L/kg, the t1/2z ([1]; female rats, mean ± SD (n = 3)) was 2.81 ± 0.25 h and 2.8 ± 0.25 h and the “Fabs (absolute bioavailability)” value ([1]; male rats) was 3.90%. The Vz/F ([1]; male rats, individual rats 1-3) was 148.10 L/kg and 49.55 L/kg and 83.24 L/kg, the “AUC(0–t)” value ([1]; male rats, mean ± SD (n = 3)) was 1171.83 ± 462.65 ng·h/mL and 1171.8 ± 462.65 ng·h/mL and the “AUC(0–∞)” value ([1]; male rats, mean ± SD (n = 3)) was 1183.48 ± 466.08 ng·h/mL and 1183.5 ± 466.08 ng·h/mL. The CLz/F ([1]; male rats, mean ± SD (n = 3)) was 322.7 ± 158 mL/min/kg and 323 ± 158 mL/min/kg, the Cmax ([1]; male rats, mean ± SD (n = 3)) was 151.15 ± 64.45 ng/mL and 151.2 ± 64.45 ng/mL and the Vz/F ([1]; male rats, mean ± SD (n = 3)) was 93.63 ± 50.09 L/kg and 93.6 ± 50.1 L/kg. The t1/2z ([1]; male rats, mean ± SD (n = 3)) was 3.3 ± 0.58 h, the “AUC(0-t)” value ([2]; female rats) was 1577.20 ng·h/mL and 2580.19 ng·h/mL and 1451.26 ng·h/mL and the “AUC(0-∞)” value ([2]; female rats) was 1582.68 ng·h/mL and 2592.62 ng·h/mL and 1513.29 ng·h/mL. For the same compound, the CLz/F ([2]; female rats) was 210.7 mL/min/kg and 128 mL/min/kg and 220.3 mL/min/kg, the Cmax ([2]; female rats) was 263.79 ng/mL and 412.66 ng/mL and 388.92 ng/mL and the Vz/F ([2]; female rats) was 51.35 L/kg and 34.03 L/kg and 48.90 L/kg. For the same compound, the “AUC(0-t)” value ([2]; male rats) was 656.21 ng·h/mL and 1550.66 ng·h/mL and 1308.63 ng·h/mL, the “AUC(0-∞)” value ([2]; male rats) was 662.23 ng·h/mL and 1560.11 ng·h/mL and 1328.10 ng·h/mL and the CLz/F ([2]; male rats) was 503.3 mL/min/kg and 213.7 mL/min/kg and 251 mL/min/kg. The Cmax ([2]; male rats) was 90.26 ng/mL and 144.54 ng/mL and 218.65 ng/mL, the t1/2z ([2]; male rats) was 2.68 h and 3.83 h and 3.40 h and the paw volume ([3]; 10 mg/kg p.o. qd 3 days, 0h (before carrageenan)) was 1.60±0.11. The paw edema [3, 5] was 56.76±9.61%, the paw volume [3, 5] was 2.50±0.06 and the edema inhibition [3, 5] was 11.69%. It also gave a paw edema [3, 6] of 58.19±18.49%, a paw volume [3, 6] of 2.52±0.17 and an edema inhibition [3, 6] of 6.69%. For the same compound, the paw edema [3, 7] was 42.15±12.34%, the paw volume [3, 7] was 2.27±0.14 and the edema inhibition [3, 7] was 18.56%. The paw edema [3, 8] was 30.81±14.08%, the paw volume [3, 8] was 2.08±0.15 and the edema inhibition [3, 8] was 21.63%. For the same compound, the paw volume ([3]; 20 mg/kg p.o. qd 3 days, 0h (before carrageenan)) was 1.63±0.12, the paw edema [3, 9] was 55.29±13.62% and the paw volume [3, 9] was 2.53±0.25. It also gave an edema inhibition [3, 9] of 13.98%, a paw edema [3, 10] of 48.28±7.79% and a paw volume [3, 10] of 2.42±0.13. It also gave an edema inhibition [3, 10] of 22.59%, a paw edema [3, 11] of 34.20±12.28% and a paw volume [3, 11] of 2.18±0.15. The edema inhibition [3, 11] was 33.94%, the paw edema [3, 12] was 27.94±7.14% and the paw volume [3, 12] was 2.08±0.08. For the same compound, the edema inhibition [3, 12] was 28.94% and the “DSC onset of the decomposition endotherm (thermodynamical stability)” value [4] was 255.9 °C.
